Consider 30 molecules from ChEMBL document CHEMBL1138909, “Structure-activity studies of oxazolidinone analogs as RNA-binding agents” (Bioorg Med Chem Lett, 2006).

Structures are written as SMILES. Activity calls are given as the source filed them. The calls are words filed in the database; no cut-off is given here.

Common to all, as to type: nucleic-acid assay
Test [1] relates to Nucleic Acid. Kind of test: Binding activity at antiterminator RNA AM1A relative to methyl 2-((4R,5S)-4-benzyl-2-oxo-5-((2-phenylacetoxy)methyl)oxazolidin-3-yl)benzoate after 10 mins.
Test [2] has as its system Nucleic Acid. The experiment in a line: Binding activity at antiterminator RNA AM1A(C11U) after 10 mins.
In test [3] the target is Nucleic Acid. The experiment in a line: Binding activity at antiterminator RNA AM1A after 10 mins.
Test [4] relates to Nucleic Acid. Kind of test: Binding activity at antiterminator RNA AM1A upto 200 uM after 10 mins.
For test [5], the system named is Nucleic Acid. Kind of test: Binding activity at antiterminator RNA AM1A(C11U) upto 200 uM after 10 mins.
Test [6] has as its target Nucleic Acid. The experiment in a line: Binding activity at antiterminator RNA AM1A(C11U) after 120 mins.

Turning to `COc1ccc(N2C(=O)O[C@H](COC(=O)Cc3ccccc3)[C@H]2CC2CCCCC2)cc1`, the results for the Activity in the test on Nucleic Acid [1] and with Nucleic Acid [2] were 0.71 and 1.05, respectively.
For `CCCCCCCC(=O)OC[C@H]1OC(=O)N(c2ccc(OC)cc2)[C@@H]1CCCc1ccccc1`, the figures for the Activity in the test with Nucleic Acid [1] and in the test on Nucleic Acid [2] were 0.65 and 0.72, respectively.
The corresponding values for `CCCCCCCC(=O)OC[C@H]1OC(=O)N(c2ccccc2C(=O)OC)[C@@H]1CC1CCCCC1` are 0.47 and 0.97.
Take `COc1ccc(N2C(=O)O[C@H](COC(=O)Cc3ccccc3)[C@H]2Cc2ccccc2)cc1`: the Kd stood at 3.4 µM on Nucleic Acid [3] and 25 µM at Nucleic Acid [2]. Besides, the Activity with Nucleic Acid [1] amounted to 0.81; in the test on Nucleic Acid [2], 0.23.
In the case of `CCCCCCCC(=O)OC[C@H]1OC(=O)N(CCCC)[C@@H]1CC1CCCCC1`, the Activity with Nucleic Acid [1] stood at 0.73; in the test with Nucleic Acid [2], 1.05.
For `COC(=O)c1ccccc1N1C(=O)O[C@H](COC(=O)Cc2ccccc2)[C@H]1CC1CCCCC1`, the Activity is 0.39 with Nucleic Acid [1] and 0.77 in the test on Nucleic Acid [2].
Take `CCCCN1C(=O)O[C@H](COC(=O)Cc2ccccc2)[C@H]1CCCc1ccccc1`: the Activity in the test with Nucleic Acid [1] came to 0.72; in the test with Nucleic Acid [2] it was 0.7.
The corresponding values for `COC(=O)c1ccccc1N1C(=O)O[C@H](COC(=O)Cc2ccccc2)[C@H]1CCCc1ccccc1` are 0.79 and 1.12.
In the same order, the values of `CCCCCCCC(=O)OC[C@H]1OC(=O)N(CCCC)[C@@H]1Cc1ccccc1` are 1.16 and 1.37.
In the same order, the values of `COc1ccc(N2C(=O)O[C@H](COC(=O)C3CCCCC3)[C@H]2CC2CCCCC2)cc1` are 0.61 and 0.82.
For `CCCCCCCC(=O)OC[C@H]1OC(=O)N(c2ccc(OC)cc2)[C@@H]1CC1CCCCC1`, the results for the Activity in the test with Nucleic Acid [1] and in the test with Nucleic Acid [2] were 0.58 and 0.78, respectively.
The corresponding values for `CCCCN1C(=O)O[C@H](COC(=O)C2CCCCC2)[C@H]1CC1CCCCC1` are 0.54 and 0.7.
With `COc1ccc(N2C(=O)O[C@H](COC(=O)Cc3ccccc3)[C@H]2CCCc2ccccc2)cc1`, in the test with Nucleic Acid [1], the Activity was found to be 0.75.
For `CCCCCCCC(=O)OC[C@H]1OC(=O)N(c2ccccc2C(=O)OC)[C@@H]1Cc1ccccc1`, the Activity in the test with Nucleic Acid [1] was determined as 1.19; in the test with Nucleic Acid [2], 1.06.
On to `CCCCCCCC(=O)OC[C@H]1OC(=O)N[C@@H]1Cc1ccccc1`, for which the outcome in the test on Nucleic Acid [4] and in the test on Nucleic Acid [5] was inactive.
Regarding `CCCCN1C(=O)O[C@H](COC(=O)Cc2ccccc2)[C@H]1Cc1ccccc1`, the Activity in the test with Nucleic Acid [1] was determined as 0.48; in the test on Nucleic Acid [2], 0.36.
For the molecule `COC(=O)c1ccccc1N1C(=O)O[C@H](COC(=O)C2CCCCC2)[C@H]1CCCc1ccccc1`, the figures for the Activity in the test on Nucleic Acid [1] and in the test on Nucleic Acid [2] were 0.71 and 0.78, respectively.
In the same order, the values of `COC(=O)c1ccccc1N1C(=O)O[C@H](COC(=O)C2CCCCC2)[C@H]1CC1CCCCC1` are 0.61 and 0.8.
Take `COC(=O)c1ccccc1N1C(=O)O[C@H](COC(=O)Cc2ccccc2)[C@H]1Cc1ccccc1`: the Activity amounted to 1 with Nucleic Acid [3] and 1.47 with Nucleic Acid [2].
On to `COc1ccc(N2C(=O)O[C@H](COC(=O)C3CCCCC3)[C@H]2Cc2ccccc2)cc1`, for which the Activity in the test on Nucleic Acid [1] came out at 0.73; in the test on Nucleic Acid [2] it was 0.77.
In the same order, the values of `CCCCN1C(=O)O[C@H](COC(=O)C2CCCCC2)[C@H]1CCCc1ccccc1` are 0.65 and 0.78.
As for `CCCCCCC(=O)OC[C@H]1OC(=O)N[C@@H]1Cc1ccccc1`, the results for the Kd on Nucleic Acid [3] and at Nucleic Acid [6] were 10 µM and 14.3 µM, respectively.
As for `CCCCN1C(=O)O[C@H](COC(=O)Cc2ccccc2)[C@H]1CC1CCCCC1`, the Activity came to 0.58 in the test on Nucleic Acid [1] and 0.78 in the test on Nucleic Acid [2].
In the same order, the values of `COc1ccc(N2C(=O)O[C@H](COC(=O)C3CCCCC3)[C@H]2CCCc2ccccc2)cc1` are 0.64 and 0.7.
In the same order, the values of `CCCCCCCC(=O)OC[C@H]1OC(=O)N(CCCC)[C@@H]1CCCc1ccccc1` are 0.56 and 0.69.
In the same order, the values of `CCCCCCCC(=O)OC[C@H]1OC(=O)N(c2ccc(OC)cc2)[C@@H]1Cc1ccccc1` are 0.43 and 0.68.
On to `CCCCCCCC(=O)OC[C@H]1OC(=O)N(c2ccccc2C(=O)OC)[C@@H]1CCCc1ccccc1`, for which the results for the Activity in the test with Nucleic Acid [1] and with Nucleic Acid [2] were 1.21 and 0.76, respectively.
Regarding `O=C(Cc1ccccc1)OC[C@H]1OC(=O)N[C@@H]1Cc1ccccc1`, the Kd was 9 µM on Nucleic Acid [3] and 125 µM on Nucleic Acid [2].
Regarding `COC(=O)c1ccccc1N1C(=O)O[C@H](COC(=O)C2CCCCC2)[C@H]1Cc1ccccc1`, the Activity in the test with Nucleic Acid [1] turned out to be 0.64; in the test on Nucleic Acid [2], 1.19.
The corresponding values for `CCCCN1C(=O)O[C@H](COC(=O)C2CCCCC2)[C@H]1Cc1ccccc1` are 0.48 and 0.59.

One may read the Kd as a measure of binding affinity in units of concentration. Low values mean a tighter complex, high ones a looser complex.
